Data as given in paper PMC7058083, “Structural basis of ligand binding modes at the human formyl peptide receptor 2” (Nature Communications, 2020).
Substitutions are numbered along the chain they refer to. Residues, ends and D or L forms follow the SMILES beside them. *: point of attachment. For = O=C*

Assays:
[1] = biological target: T1, wild-type (WT) and mutant FPR2 (Homo sapiens, UniProt P25090, H102F); test: Competition binding of fMLFK with WK(FITC)YMVm, flow cytometry on HEK293F cells; conditions: FPR2 H102F; mean ± s.e.m., n=3; SEM
T1 construct: expressed in transfected cells; host or cells: HEK293F
T1 sequence (P25090 1-351 H102F): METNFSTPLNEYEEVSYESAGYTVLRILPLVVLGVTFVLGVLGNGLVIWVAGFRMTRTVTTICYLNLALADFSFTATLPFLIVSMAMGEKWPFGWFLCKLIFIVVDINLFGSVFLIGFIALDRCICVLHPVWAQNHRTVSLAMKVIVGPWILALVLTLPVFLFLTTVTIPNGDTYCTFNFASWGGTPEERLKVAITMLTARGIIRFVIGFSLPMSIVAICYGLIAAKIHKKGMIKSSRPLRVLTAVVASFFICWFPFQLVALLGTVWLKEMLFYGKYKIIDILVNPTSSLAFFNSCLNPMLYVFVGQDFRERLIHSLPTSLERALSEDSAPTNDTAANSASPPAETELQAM
Description: (§1) Flag-tagged wild-type and mutant FPR2s were cloned into the pTT5 vector and expressed in HEK293F cells. The cells were harvested, and washed with Hanks’ Balanced Salt Solution (HBSS) buffer supplemented with 0.5% bovine serum albumin and 20 mM HEPES, pH 7.4. The cells were then resuspended in the same buffer to the final concentration of 1 × 10^6 cells per ml. The cell-surface expression was measured as mentioned above. […] Mean fluorescent intensity of each well was then read by a FCM (flow cytometry) reader (Millipore). […] For competitive binding of fMLFK, cells were plated in 96-well plates (100,000 cells per well), and incubated with WK(FITC)YMVm at 4 °C for 1 h. The following concentrations of WK(FITC)YMVm were used: 10 nM (wild type, L81^2.60F, E89G, and V105^3.32A), 30 nM (D281^7.32G), 40 nM (H102^3.29F, V160^4.60A, L268^ECL3A, N285^7.36A, and F292^7.43A), and 100 nM (L164^4.64A and T177A). Then increasing concentrations of fMLFK (100 nM–1 mM) were added, and incubated for another 1 h on ice. Mean fluorescent intensity values were measured by flow cytometry. Data were analyzed using Prism 7.0.

[2] = biological target: T2, wild-type (WT) and mutant FPR2 (Homo sapiens, UniProt P25090, L164A); test: as above; conditions: FPR2 L164A; mean ± s.e.m., n=3; SEM
T2 construct: expressed in transfected cells; host or cells: HEK293F
T2 sequence (P25090 1-351 L164A): T1 sequence (P25090 1-351 H102F) with F102H, L164A
Description: as §1

[3] = biological target: T3, wild-type (WT) and mutant FPR2 (Homo sapiens, UniProt P25090, L268A); test: Saturation binding of WK(FITC)YMVm, flow cytometry on HEK293F cells; conditions: FPR2 L268A
T3 construct: expressed in transfected cells; host or cells: HEK293F
T3 sequence (P25090 1-351 L268A): T1 sequence (P25090 1-351 H102F) with F102H, L268A
Description: as §1

[4] = biological target: T4, wild-type (WT) and mutant FPR2 (Homo sapiens, UniProt P25090, R201F); test: as above; conditions: mutation R201F
T4 construct: expressed in transfected cells; host or cells: HEK293F
T4 sequence (P25090 whole entry R201F): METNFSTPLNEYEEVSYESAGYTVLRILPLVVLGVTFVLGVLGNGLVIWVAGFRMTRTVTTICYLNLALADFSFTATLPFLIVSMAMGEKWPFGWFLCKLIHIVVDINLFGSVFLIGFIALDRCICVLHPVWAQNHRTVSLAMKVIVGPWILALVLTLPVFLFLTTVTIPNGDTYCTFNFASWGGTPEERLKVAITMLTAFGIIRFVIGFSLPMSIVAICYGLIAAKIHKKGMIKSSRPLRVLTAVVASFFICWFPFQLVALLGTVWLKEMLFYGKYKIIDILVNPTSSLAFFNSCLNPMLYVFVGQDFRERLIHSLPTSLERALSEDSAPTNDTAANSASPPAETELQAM
Description: as §1

[5] = biological target: T5, wild-type (WT) and mutant FPR2 (Homo sapiens, UniProt P25090); test: as above; conditions: FPR2 WT
T5 construct: expressed in transfected cells; host or cells: HEK293F
T5 sequence (P25090 1-351): T1 sequence (P25090 1-351 H102F) with F102H
Description: as §1

[6] = biological target: T6, wild-type (WT) and mutant FPR2 (Homo sapiens, UniProt P25090, L81F); test: as above; conditions: FPR2 L81F
T6 construct: expressed in transfected cells; host or cells: HEK293F
T6 sequence (P25090 1-351 L81F): T1 sequence (P25090 1-351 H102F) with L81F, F102H
Description: as §1

[7] = biological target: T7, wild-type (WT) and mutant FPR2 (Homo sapiens, UniProt P25090, L164W); test: as above; conditions: mutation L164W
T7 construct: expressed in transfected cells; host or cells: HEK293F
T7 sequence (P25090 whole entry L164W): as the sequence (P25090 whole entry R201F) above, with L164W, F201R counted along it
Description: as §1

[8] = biological target: T8, wild-type (WT) and mutant FPR2 (Homo sapiens, UniProt P25090, F257Y); test: as above; conditions: FPR2 F257Y
T8 construct: expressed in transfected cells; host or cells: HEK293F
T8 sequence (P25090 whole entry F257Y): as the sequence (P25090 whole entry R201F) above, with F201R, F257Y counted along it
Description: as §1

[9] = biological target: T9, wild-type (WT) and mutant FPR2 (Homo sapiens, UniProt P25090, D281L); test: as above; conditions: FPR2 D281L
T9 construct: expressed in transfected cells; host or cells: HEK293F
T9 sequence (P25090 whole entry D281L): as the sequence (P25090 whole entry R201F) above, with F201R, D281L counted along it
Description: as §1

Row | Structure (SMILES) | pKi, competition binding [1] | pKi, competition binding [2] | Span (% of WT), saturation binding [3] | Kd ([3]; mean ± s.e.m., n=3, SEM) [nM] | WK(FITC)YMVm binding [4] | Span (% of WT), saturation binding [5] | Kd ([5]; mean ± s.e.m., n=3, SEM) [nM] | Span (% of WT), saturation binding [6] | Kd ([6]; mean ± s.e.m., n=3, SEM) [nM] | WK(FITC)YMVm binding [7] | Span (% of WT), saturation binding [8] | Kd ([8]; mean ± s.e.m., n=3, SEM) [nM] | Span (% of WT), saturation binding [9] | Kd ([9]; mean ± s.e.m., n=3, SEM) [nM]
1 | CSCC[C@H](NC=O)C(=O)N[C@@H](CC(C)C)C(=O)N[C@@H](Cc1ccccc1)C(=O)N[C@@H](CCCCN)C(=O)O [fMLFK] (For-MLFK-OH) | 3.85 ± 0.24 | 4.16 ± 0.25 |  |  |  |  |  |  |  |  |  |  |  | 
2 | CSCC[C@H](NC(=O)[C@H](Cc1ccc(O)cc1)NC(=O)[C@H](CCCCNC(=S)Nc1ccc2c(c1)C(=O)OC21c2ccc(O)cc2Oc2cc(O)ccc21)NC(=O)[C@@H](N)Cc1c[nH]c2ccccc12)C(=O)N[C@H](C(=O)N[C@H](CCSC)C(N)=O)C(C)C [WK(FITC)YMVm] |  |  | 76 ± 7 % of WT | 28.0 ± 10.0 | substantially reduced | 100 % of WT | 24.0 ± 8.5 | 42 ± 4 % of WT | 24.3 ± 8.4 | severely impaired | 57 ± 6 % of WT | 154 ± 48 | 39 ± 11 % of WT | 57.6 ± 14.0
